# Experimental data from patent US12194124B2, “Personal care compositions for treating odor causing bacteria and methods for the same” (Colgate-Palmolive Company, priority 2019, dated 2025).
# Test system: S. Epidermidis
# Assay: Growth inhibition assay in 96-well plate, optical density of S. Epidermidis
# Type: cell-based, Staphylococcus epidermidis
# Procedure: The efficacy of 2-butyl octanol for selectively promoting, inhibiting, reducing, and/or treating bacterial growth was evaluated. Particularly, the efficacy of 2-butyl octanol for selectively promoting, inhibiting, reducing, and/or treating bacterial growth of Corynebacterium and Staphylococcus was evaluated. To evaluate the efficacy, an active solution was prepared by emulsifying 2-butyl octanol with a nonionic surfactant, namely, Polysorbate 80. The active solution included the 2-butyl octanol and the Polysorbate 80 in a ratio of about 83:17. Both positive controls (including no active solution) and negative controls (including no bacteria) were also prepared.
# A 96-well plate was utilized to evaluate the growth of the respective bacteria at varying dilutions. Each of the wells of a 96-well plate was aseptically filled with about 100 μL of Tryptic Soy Broth (TSB). In the first well of each row, about 100 μL of either the active solution (including the 2-butyl octanol and Polysorbate 80) or the desired solvent for the respective positive and negative controls was added to thereby provide a total of about 200 μL in the first well of the each respective row. A multi-channel pipette was then utilized to prepare a two-fold dilution in each column. Specifically, a multi-channel pipette set to about 100 μL was utilized to mix and transfer about 100 μL of the 200 μL from the wells of the first column to the respective wells of a subsequent column. This was repeated for each of the remaining eleven columns. About 100 μL of the twelfth column was removed, thereby leaving about 100 μL in each of the 96 wells. […] Specifically, a phosphate buffered saline (PBS) was utilized for the negative control. About 100 μL of the respective bacteria adjusted to 0.1 optical density (OD) bacteria was added to all other wells. The well plate was then incubated overnight at about 37° C. in a growth inhibition assay machine. Measurements were taken at about one hour increments.
compound,measurement,setting,value
"CCCCCCC(CO)CCCC (stereo not shown) [2-butyl octanol, 2-butyl-1-octanol]",Measured Optical Density of S. Epidermidis,"0.02% 2-Butyl Octanol, 1 Hour",0.07
same,Measured Optical Density of S. Epidermidis,"0.02% 2-Butyl Octanol, 2 Hour",0.327
same,Measured Optical Density of S. Epidermidis,"0.02% 2-Butyl Octanol, 3 Hour",0.519
same,Measured Optical Density of S. Epidermidis,"0.02% 2-Butyl Octanol, 4 Hour",0.561
same,Measured Optical Density of S. Epidermidis,"0.02% 2-Butyl Octanol, 5 Hour",0.548
same,Measured Optical Density of S. Epidermidis,"0.02% 2-Butyl Octanol, 6 Hour",0.564
same,Measured Optical Density of S. Epidermidis,"0.02% 2-Butyl Octanol, 7 Hour",0.586
same,Measured Optical Density of S. Epidermidis,"0.02% 2-Butyl Octanol, 8 Hour",0.593
same,Measured Optical Density of S. Epidermidis,"0.02% 2-Butyl Octanol, 9 Hour",0.602
same,Measured Optical Density of S. Epidermidis,"0.02% 2-Butyl Octanol, 10 Hour",0.623
same,Measured Optical Density of S. Epidermidis,"0.02% 2-Butyl Octanol, 11 Hour",0.652
same,Measured Optical Density of S. Epidermidis,"0.02% 2-Butyl Octanol, 12 Hour",0.651
same,Measured Optical Density of S. Epidermidis,"0.02% 2-Butyl Octanol, 13 Hour",0.66
same,Measured Optical Density of S. Epidermidis,"0.02% 2-Butyl Octanol, 14 Hour",0.689
same,Measured Optical Density of S. Epidermidis,"0.02% 2-Butyl Octanol, 15 Hour",0.809
same,Measured Optical Density of S. Epidermidis,"0.02% 2-Butyl Octanol, 16 Hour",0.893
same,Measured Optical Density of S. Epidermidis,"0.02% 2-Butyl Octanol, 17 Hour",0.951
same,Measured Optical Density of S. Epidermidis,"0.02% 2-Butyl Octanol, 18 Hour",0.97
same,Measured Optical Density of S. Epidermidis,"0.04% 2-Butyl Octanol, 1 Hour",0.088
same,Measured Optical Density of S. Epidermidis,"0.04% 2-Butyl Octanol, 2 Hour",0.351
same,Measured Optical Density of S. Epidermidis,"0.04% 2-Butyl Octanol, 3 Hour",0.55
same,Measured Optical Density of S. Epidermidis,"0.04% 2-Butyl Octanol, 4 Hour",0.583
same,Measured Optical Density of S. Epidermidis,"0.04% 2-Butyl Octanol, 5 Hour",0.578
same,Measured Optical Density of S. Epidermidis,"0.04% 2-Butyl Octanol, 6 Hour",0.592
same,Measured Optical Density of S. Epidermidis,"0.04% 2-Butyl Octanol, 7 Hour",0.613
same,Measured Optical Density of S. Epidermidis,"0.04% 2-Butyl Octanol, 8 Hour",0.64
same,Measured Optical Density of S. Epidermidis,"0.04% 2-Butyl Octanol, 9 Hour",0.651
same,Measured Optical Density of S. Epidermidis,"0.04% 2-Butyl Octanol, 10 Hour",0.664
same,Measured Optical Density of S. Epidermidis,"0.04% 2-Butyl Octanol, 11 Hour",0.666
same,Measured Optical Density of S. Epidermidis,"0.04% 2-Butyl Octanol, 12 Hour",0.656
same,Measured Optical Density of S. Epidermidis,"0.04% 2-Butyl Octanol, 13 Hour",0.652
same,Measured Optical Density of S. Epidermidis,"0.04% 2-Butyl Octanol, 14 Hour",0.675
same,Measured Optical Density of S. Epidermidis,"0.04% 2-Butyl Octanol, 15 Hour",0.756
same,Measured Optical Density of S. Epidermidis,"0.04% 2-Butyl Octanol, 16 Hour",0.825
same,Measured Optical Density of S. Epidermidis,"0.04% 2-Butyl Octanol, 17 Hour",0.915
same,Measured Optical Density of S. Epidermidis,"0.04% 2-Butyl Octanol, 18 Hour",0.961
same,Measured Optical Density of S. Epidermidis,"0.08% 2-Butyl Octanol, 1 Hour",0.111
same,Measured Optical Density of S. Epidermidis,"0.08% 2-Butyl Octanol, 2 Hour",0.482
same,Measured Optical Density of S. Epidermidis,"0.08% 2-Butyl Octanol, 3 Hour",0.688
same,Measured Optical Density of S. Epidermidis,"0.08% 2-Butyl Octanol, 4 Hour",0.703
same,Measured Optical Density of S. Epidermidis,"0.08% 2-Butyl Octanol, 5 Hour",0.684
same,Measured Optical Density of S. Epidermidis,"0.08% 2-Butyl Octanol, 6 Hour",0.677
same,Measured Optical Density of S. Epidermidis,"0.08% 2-Butyl Octanol, 7 Hour",0.662
same,Measured Optical Density of S. Epidermidis,"0.08% 2-Butyl Octanol, 8 Hour",0.652
same,Measured Optical Density of S. Epidermidis,"0.08% 2-Butyl Octanol, 9 Hour",0.653
same,Measured Optical Density of S. Epidermidis,"0.08% 2-Butyl Octanol, 10 Hour",0.658
same,Measured Optical Density of S. Epidermidis,"0.08% 2-Butyl Octanol, 11 Hour",0.646
same,Measured Optical Density of S. Epidermidis,"0.08% 2-Butyl Octanol, 12 Hour",0.63
same,Measured Optical Density of S. Epidermidis,"0.08% 2-Butyl Octanol, 13 Hour",0.632
same,Measured Optical Density of S. Epidermidis,"0.08% 2-Butyl Octanol, 14 Hour",0.662
same,Measured Optical Density of S. Epidermidis,"0.08% 2-Butyl Octanol, 15 Hour",0.741
same,Measured Optical Density of S. Epidermidis,"0.08% 2-Butyl Octanol, 16 Hour",0.795
same,Measured Optical Density of S. Epidermidis,"0.08% 2-Butyl Octanol, 17 Hour",0.883
same,Measured Optical Density of S. Epidermidis,"0.08% 2-Butyl Octanol, 18 Hour",0.943
same,Measured Optical Density of S. Epidermidis,"0.16% 2-Butyl Octanol, 1 Hour",0.148
same,Measured Optical Density of S. Epidermidis,"0.16% 2-Butyl Octanol, 2 Hour",0.564
same,Measured Optical Density of S. Epidermidis,"0.16% 2-Butyl Octanol, 3 Hour",0.76
same,Measured Optical Density of S. Epidermidis,"0.16% 2-Butyl Octanol, 4 Hour",0.786
same,Measured Optical Density of S. Epidermidis,"0.16% 2-Butyl Octanol, 5 Hour",0.778
same,Measured Optical Density of S. Epidermidis,"0.16% 2-Butyl Octanol, 6 Hour",0.764
same,Measured Optical Density of S. Epidermidis,"0.16% 2-Butyl Octanol, 7 Hour",0.757
same,Measured Optical Density of S. Epidermidis,"0.16% 2-Butyl Octanol, 8 Hour",0.741
same,Measured Optical Density of S. Epidermidis,"0.16% 2-Butyl Octanol, 9 Hour",0.729
same,Measured Optical Density of S. Epidermidis,"0.16% 2-Butyl Octanol, 10 Hour",0.726
same,Measured Optical Density of S. Epidermidis,"0.16% 2-Butyl Octanol, 11 Hour",0.718
same,Measured Optical Density of S. Epidermidis,"0.16% 2-Butyl Octanol, 12 Hour",0.702
same,Measured Optical Density of S. Epidermidis,"0.16% 2-Butyl Octanol, 13 Hour",0.695
same,Measured Optical Density of S. Epidermidis,"0.16% 2-Butyl Octanol, 14 Hour",0.702
same,Measured Optical Density of S. Epidermidis,"0.16% 2-Butyl Octanol, 15 Hour",0.764
same,Measured Optical Density of S. Epidermidis,"0.16% 2-Butyl Octanol, 16 Hour",0.801
same,Measured Optical Density of S. Epidermidis,"0.16% 2-Butyl Octanol, 17 Hour",0.844
same,Measured Optical Density of S. Epidermidis,"0.16% 2-Butyl Octanol, 18 Hour",0.874
same,growth of S. epidermidis,2-butyl octanol about 0.02 weight % to about 5.2 weight %,did not inhibit the growth of and/or promoted the growth of
same,Measured Optical Density of S. Epidermidis,"5.2% 2-Butyl Octanol, 1 Hour",0.257
same,Measured Optical Density of S. Epidermidis,"5.2% 2-Butyl Octanol, 2 Hour",0.501
same,Measured Optical Density of S. Epidermidis,"5.2% 2-Butyl Octanol, 3 Hour",0.583
same,Measured Optical Density of S. Epidermidis,"5.2% 2-Butyl Octanol, 4 Hour",0.624
same,Measured Optical Density of S. Epidermidis,"5.2% 2-Butyl Octanol, 5 Hour",0.665
same,Measured Optical Density of S. Epidermidis,"5.2% 2-Butyl Octanol, 6 Hour",0.723
same,Measured Optical Density of S. Epidermidis,"5.2% 2-Butyl Octanol, 7 Hour",0.855
same,Measured Optical Density of S. Epidermidis,"5.2% 2-Butyl Octanol, 8 Hour",0.918
same,Measured Optical Density of S. Epidermidis,"5.2% 2-Butyl Octanol, 9 Hour",0.994
same,Measured Optical Density of S. Epidermidis,"5.2% 2-Butyl Octanol, 10 Hour",1.052
same,Measured Optical Density of S. Epidermidis,"5.2% 2-Butyl Octanol, 11 Hour",1.067
same,Measured Optical Density of S. Epidermidis,"5.2% 2-Butyl Octanol, 12 Hour",1.066
same,Measured Optical Density of S. Epidermidis,"5.2% 2-Butyl Octanol, 13 Hour",1.081
same,Measured Optical Density of S. Epidermidis,"5.2% 2-Butyl Octanol, 14 Hour",1.105
same,Measured Optical Density of S. Epidermidis,"5.2% 2-Butyl Octanol, 15 Hour",1.118
same,Measured Optical Density of S. Epidermidis,"5.2% 2-Butyl Octanol, 16 Hour",1.127
same,Measured Optical Density of S. Epidermidis,"5.2% 2-Butyl Octanol, 17 Hour",1.142
same,Measured Optical Density of S. Epidermidis,"5.2% 2-Butyl Octanol, 18 Hour",1.127
